{
  "source": "the supplement of paper PMC10307832",
  "experiment_in_all_cases": "relative viability (nuclei count vs DMSO), 5 days (fraction); higher = more cells survive",
  "key": {"[1]": {"system": "NCI-H1648", "procedure,_shortened": "(§1)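 Nuclei were stained with Hoechst during a one-step fixation (final 0.05% Triton X-100, 1% formaldehyde, 1 ug/ml Hoechst) carried out 5 days after dosing, then counted on 4× images. The cells, lung cancer lines in 1536-well plates, had been dosed by pin tool the day after seeding with one drug alone or a fixed anchor-drug dose plus five library-drug doses (not always all listed) in √10 steps. Relative viability is the nuclei count in treated wells divided by that in vehicle wells, and each value is the median of duplicate plates.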"}, "[2]": {"system": "LK-2", "procedure,_shortened": "as §1"}, "[3]": {"system": "IA-LM", "procedure,_shortened": "as §1"}, "[4]": {"system": "NCI-H1734", "procedure,_shortened": "as §1"}, "[5]": {"system": "A-427", "procedure,_shortened": "as §1"}, "[6]": {"system": "CAL-12T", "procedure,_shortened": "as §1"}, "[7]": {"system": "NCI-H2009", "procedure,_shortened": "as §1"}, "[8]": {"system": "NCI-H1650", "procedure,_shortened": "as §1"}, "[9]": {"system": "UMC-11", "procedure,_shortened": "as §1"}},
  "data": [
    {"smiles": "CC(=O)O[C@@]12CO[C@@H]1C[C@H](O)[C@@]1(C)C(=O)[C@H](O)C3=C(C)[C@@H](OC(=O)[C@H](O)[C@@H](NC(=O)OC(C)(C)C)c4ccccc4)C[C@@](O)([C@@H](OC(=O)c4ccccc4)[C@H]21)C3(C)C", "note": "[Docetaxel] + O=C(CCCCCCC(=O)Nc1ccccc1)NO [Vorinostat] (partner 1 µM)", "values": [
      {"measurement": "relative viability", "setting": "[1]; first compound 0.0002 µM", "result": 0.487},
      {"measurement": "relative viability", "setting": "[1]; first compound 0.000632 µM", "result": 0.378},
      {"measurement": "relative viability", "setting": "[1]; first compound 0.002 µM", "result": 0.255},
      {"measurement": "relative viability", "setting": "[1]; first compound 0.006325 µM", "result": 0.301},
      {"measurement": "relative viability", "setting": "[1]; first compound 0.02 µM", "result": 0.155},
      {"measurement": "relative viability", "setting": "[2]; first compound 0.0002 µM", "result": 0.313},
      {"measurement": "relative viability", "setting": "[2]; first compound 0.000632 µM", "result": 0.217},
      {"measurement": "relative viability", "setting": "[2]; first compound 0.002 µM", "result": 0.15},
      {"measurement": "relative viability", "setting": "[2]; first compound 0.006325 µM", "result": 0.183},
      {"measurement": "relative viability", "setting": "[2]; first compound 0.02 µM", "result": 0.152},
      {"measurement": "relative viability", "setting": "[3]; first compound 0.0002 µM", "result": 0.723},
      {"measurement": "relative viability", "setting": "[3]; first compound 0.000632 µM", "result": 0.328},
      {"measurement": "relative viability", "setting": "[3]; first compound 0.002 µM", "result": 0.145},
      {"measurement": "relative viability", "setting": "[3]; first compound 0.006325 µM", "result": 0.0958},
      {"measurement": "relative viability", "setting": "[3]; first compound 0.02 µM", "result": 0.0566},
      {"measurement": "relative viability", "setting": "[4]; first compound 0.0002 µM", "result": 0.618},
      {"measurement": "relative viability", "setting": "[4]; first compound 0.000632 µM", "result": 0.506},
      {"measurement": "relative viability", "setting": "[4]; first compound 0.002 µM", "result": 0.304},
      {"measurement": "relative viability", "setting": "[4]; first compound 0.006325 µM", "result": 0.328},
      {"measurement": "relative viability", "setting": "[4]; first compound 0.02 µM", "result": 0.207},
      {"measurement": "relative viability", "setting": "[5]; first compound 0.0002 µM", "result": 0.824},
      {"measurement": "relative viability", "setting": "[5]; first compound 0.000632 µM", "result": 0.822},
      {"measurement": "relative viability", "setting": "[5]; first compound 0.002 µM", "result": 0.621},
      {"measurement": "relative viability", "setting": "[5]; first compound 0.006325 µM", "result": 0.36},
      {"measurement": "relative viability", "setting": "[5]; first compound 0.02 µM", "result": 0.27},
      {"measurement": "relative viability", "setting": "[6]; first compound 0.0002 µM", "result": 0.411},
      {"measurement": "relative viability", "setting": "[6]; first compound 0.000632 µM", "result": 0.35},
      {"measurement": "relative viability", "setting": "[6]; first compound 0.002 µM", "result": 0.255},
      {"measurement": "relative viability", "setting": "[6]; first compound 0.006325 µM", "result": 0.142},
      {"measurement": "relative viability", "setting": "[6]; first compound 0.02 µM", "result": 0.12},
      {"measurement": "relative viability", "setting": "[7]; first compound 0.0002 µM", "result": 0.714},
      {"measurement": "relative viability", "setting": "[7]; first compound 0.000632 µM", "result": 0.715},
      {"measurement": "relative viability", "setting": "[7]; first compound 0.002 µM", "result": 0.707},
      {"measurement": "relative viability", "setting": "[7]; first compound 0.006325 µM", "result": 0.301},
      {"measurement": "relative viability", "setting": "[7]; first compound 0.02 µM", "result": 0.176},
      {"measurement": "relative viability", "setting": "[8]; first compound 0.0002 µM", "result": 0.54},
      {"measurement": "relative viability", "setting": "[8]; first compound 0.000632 µM", "result": 0.499},
      {"measurement": "relative viability", "setting": "[8]; first compound 0.002 µM", "result": 0.226},
      {"measurement": "relative viability", "setting": "[8]; first compound 0.006325 µM", "result": 0.196},
      {"measurement": "relative viability", "setting": "[8]; first compound 0.02 µM", "result": 0.162},
      {"measurement": "relative viability", "setting": "[9]; first compound 0.0002 µM", "result": 0.402},
      {"measurement": "relative viability", "setting": "[9]; first compound 0.000632 µM", "result": 0.287},
      {"measurement": "relative viability", "setting": "[9]; first compound 0.002 µM", "result": 0.155},
      {"measurement": "relative viability", "setting": "[9]; first compound 0.006325 µM", "result": 0.203},
      {"measurement": "relative viability", "setting": "[9]; first compound 0.02 µM", "result": 0.108}
    ]},
    {"smiles": "Cc1sc2c(c1C)C(c1ccc(Cl)cc1)=N[C@@H](CC(=O)OC(C)(C)C)c1nnc(C)n1-2", "note": "[JQ1] + O=C(CCCCCCC(=O)Nc1ccccc1)NO [Vorinostat] (partner 1 µM)", "values": [
      {"measurement": "relative viability", "setting": "[1]; first compound 0.04 µM", "result": 0.392},
      {"measurement": "relative viability", "setting": "[1]; first compound 0.1265 µM", "result": 0.41},
      {"measurement": "relative viability", "setting": "[1]; first compound 0.4 µM", "result": 0.264},
      {"measurement": "relative viability", "setting": "[1]; first compound 1.265 µM", "result": 0.234},
      {"measurement": "relative viability", "setting": "[1]; first compound 4 µM", "result": 0.198},
      {"measurement": "relative viability", "setting": "[2]; first compound 0.04 µM", "result": 0.301},
      {"measurement": "relative viability", "setting": "[2]; first compound 0.1265 µM", "result": 0.233},
      {"measurement": "relative viability", "setting": "[2]; first compound 0.4 µM", "result": 0.281},
      {"measurement": "relative viability", "setting": "[2]; first compound 1.265 µM", "result": 0.128},
      {"measurement": "relative viability", "setting": "[2]; first compound 4 µM", "result": 0.101},
      {"measurement": "relative viability", "setting": "[3]; first compound 0.04 µM", "result": 0.925},
      {"measurement": "relative viability", "setting": "[3]; first compound 0.1265 µM", "result": 0.888},
      {"measurement": "relative viability", "setting": "[3]; first compound 0.4 µM", "result": 0.197},
      {"measurement": "relative viability", "setting": "[3]; first compound 1.265 µM", "result": 0.0917},
      {"measurement": "relative viability", "setting": "[3]; first compound 4 µM", "result": 0.0701},
      {"measurement": "relative viability", "setting": "[4]; first compound 0.04 µM", "result": 0.802},
      {"measurement": "relative viability", "setting": "[4]; first compound 0.1265 µM", "result": 0.665},
      {"measurement": "relative viability", "setting": "[4]; first compound 0.4 µM", "result": 0.712},
      {"measurement": "relative viability", "setting": "[4]; first compound 1.265 µM", "result": 0.334},
      {"measurement": "relative viability", "setting": "[4]; first compound 4 µM", "result": 0.358},
      {"measurement": "relative viability", "setting": "[5]; first compound 0.04 µM", "result": 0.861},
      {"measurement": "relative viability", "setting": "[5]; first compound 0.1265 µM", "result": 0.748},
      {"measurement": "relative viability", "setting": "[5]; first compound 0.4 µM", "result": 0.789},
      {"measurement": "relative viability", "setting": "[5]; first compound 1.265 µM", "result": 0.594},
      {"measurement": "relative viability", "setting": "[5]; first compound 4 µM", "result": 0.429},
      {"measurement": "relative viability", "setting": "[6]; first compound 0.04 µM", "result": 0.853},
      {"measurement": "relative viability", "setting": "[6]; first compound 0.1265 µM", "result": 0.838},
      {"measurement": "relative viability", "setting": "[6]; first compound 0.4 µM", "result": 0.685},
      {"measurement": "relative viability", "setting": "[6]; first compound 1.265 µM", "result": 0.238},
      {"measurement": "relative viability", "setting": "[6]; first compound 4 µM", "result": 0.217},
      {"measurement": "relative viability", "setting": "[7]; first compound 0.04 µM", "result": 0.701},
      {"measurement": "relative viability", "setting": "[7]; first compound 0.1265 µM", "result": 0.444},
      {"measurement": "relative viability", "setting": "[7]; first compound 0.4 µM", "result": 0.429},
      {"measurement": "relative viability", "setting": "[7]; first compound 1.265 µM", "result": 0.264},
      {"measurement": "relative viability", "setting": "[7]; first compound 4 µM", "result": 0.201},
      {"measurement": "relative viability", "setting": "[8]; first compound 0.04 µM", "result": 0.6},
      {"measurement": "relative viability", "setting": "[8]; first compound 0.1265 µM", "result": 0.438},
      {"measurement": "relative viability", "setting": "[8]; first compound 0.4 µM", "result": 0.475},
      {"measurement": "relative viability", "setting": "[8]; first compound 1.265 µM", "result": 0.292},
      {"measurement": "relative viability", "setting": "[8]; first compound 4 µM", "result": 0.177},
      {"measurement": "relative viability", "setting": "[9]; first compound 0.04 µM", "result": 0.326},
      {"measurement": "relative viability", "setting": "[9]; first compound 0.1265 µM", "result": 0.317},
      {"measurement": "relative viability", "setting": "[9]; first compound 0.4 µM", "result": 0.223},
      {"measurement": "relative viability", "setting": "[9]; first compound 1.265 µM", "result": 0.141},
      {"measurement": "relative viability", "setting": "[9]; first compound 4 µM", "result": 0.165}
    ]}
  ]
}
